In PubChem BioAssay (NCI):
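Step 1: Grow cells in 96-well plates. Step 2: Expose to compound for 48 hours at 5 concentrations. Step 3: Interpolate endpoints linearly; if unreached, use highest concentration. GI50: concentration for 50% inhibition of growth. TGI: total growth inhibition.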

Experiments:
Assay in all cases: NCI-60 cell line screen, 48 h
SK-MEL-5 melanoma = system: SK-MEL-5 melanoma
OVCAR-4 ovarian = system: OVCAR-4 ovarian
BT-549 breast = system: BT-549 breast
HL-60(TB) leukemia = system: HL-60(TB) leukemia
KM12 colon = system: KM12 colon
HOP-62 NSCLC = system: HOP-62 NSCLC
A549 NSCLC = system: A549 NSCLC
UACC-62 melanoma = system: UACC-62 melanoma
EKVX NSCLC = system: EKVX NSCLC
ACHN renal = system: ACHN renal

Row | SMILES | TGI (SK-MEL-5 melanoma) [µM] | TGI (OVCAR-4 ovarian) [µM] | TGI (BT-549 breast) [µM] | TGI (HL-60(TB) leukemia) [µM] | TGI (KM12 colon) [µM] | TGI (HOP-62 NSCLC) [µM] | TGI (A549 NSCLC) [µM] | TGI (UACC-62 melanoma) [µM] | TGI (EKVX NSCLC) [µM] | TGI (ACHN renal) [µM] | GI50 (HL-60(TB) leukemia) [µM] | GI50 (UACC-62 melanoma) [µM] | GI50 (EKVX NSCLC) [µM]
1 | NCCCn1c2ccccc2c2c3c(c4c(c21)CCC(O)CC4)C(=O)NC3=O (centres undefined) | 16.5 | 5.44 | 20.2 | 22 | 10.7 | 15.9 | 21.6 | 17.3 | 23.7 | 12.1 | – | – | –
2 | O=C(CN1CCN(Cc2ccccc2)CC1)N1CCCn2c1nc1ccccc1c2=O | > 100 | > 100 | > 100 | > 100 | > 100 | > 100 | > 100 | > 100 | > 100 | > 100 | – | – | –
3 | Cc1ccc(OCC2OC(n3cnc4nc(Cl)nc(Cl)c43)CC2Oc2ccc(C)cc2)cc1 (centres undefined) | 30.8 | 56.1 | 30.4 | 3.94 | 23.7 | 34.8 | > 63.3 | 20.5 | 34 | 7.9 | – | – | –
4 | CC1(C)[C@@H](Cn2cnc3c(N)ncnc32)CC[C@@]1(C)CO | > 100 | > 100 | > 100 | > 100 | > 100 | > 100 | > 100 | > 100 | > 100 | > 100 | – | – | –
5 | CNc1ccc(-c2nc3cc(C)ccc3o2)cc1 | > 100 | > 100 | > 100 | > 100 | > 100 | > 100 | > 100 | > 100 | > 100 | > 100 | – | – | –
6 | Clc1ccc(Cc2nc3ccc(CCN4CCN(c5ccccc5)CC4)cc3[nH]2)cc1 | 25.3 | 37.3 | 34 | > 100 | 24.1 | 30.5 | 33 | 33.6 | 79.9 | > 100 | – | – | –
7 | N#Cc1c(SCc2ccccc2)nc(-c2ccccc2)[nH]c1=S | 54.8 | > 100 | 54.2 | > 100 | 34.5 | 40.7 | > 100 | 56.6 | 93.6 | 63.3 | – | – | –
8 | C=CCOc1ccccc1N=N/C(C#N)=N\Nc1ccccc1OCC=C | > 100 | > 100 | > 100 | > 100 | > 100 | > 100 | > 100 | > 100 | > 100 | > 100 | – | – | –
9 | O=C(/C=C/c1ccsc1)c1ccco1 | 29.7 | > 37.2 | 33.2 | 24 | > 22.2 | 28.1 | 11.7 | 29.2 | 36 | 22.8 | – | – | –
10 | c1ccc(C2=Nc3nc4ccccc4n3C(c3ccccc3)C2)cc1 (centres undefined) | > 100 | > 100 | > 100 | > 100 | > 100 | > 100 | > 100 | > 100 | > 100 | > 100 | – | – | –
11 | NC(=Nc1ccc(O)cc1)S(=O)(=O)O | > 100 | > 100 | > 100 | > 100 | > 100 | > 100 | > 100 | > 100 | > 100 | > 100 | – | – | –
12 | CN(C)c1nc(NC23CC4CC(CC(C4)C2)C3)nc(N(C)C)n1 | 24.8 | > 100 | > 100 | 13.5 | > 100 | > 90.4 | > 39.4 | > 76.1 | > 100 | > 100 | – | – | –
13 | COc1cc(OC)c2c(O)c3c(cc2c1)CC(C)(C)CC3=O | > 100 | > 100 | > 100 | > 100 | > 100 | > 100 | > 100 | > 100 | > 100 | > 100 | – | – | –
14 | O=C1/C(=C\c2cccc(Oc3ccccc3)c2)S(=O)(=O)C(c2ccccc2)N1c1ccccc1Cl (centres undefined) | 32 | 98.1 | > 100 | 33.6 | > 100 | > 100 | > 100 | 94.8 | 92.2 | > 100 | – | – | –
15 | COC1=C(N=[N+]=[N-])C(=O)c2ncccc2C1=O | 23.4 | 5.7 | 23 | 3.98 | 29.5 | 29.4 | 32.1 | 20.8 | 17.3 | 15 | – | – | –
16 | NC(=O)c1nnc2cc(F)ccc2c1N | > 100 | > 100 | > 100 | > 100 | > 100 | > 100 | > 100 | > 100 | > 100 | > 100 | – | – | –
17 | COC(=O)c1cc(NC(=O)c2cc(NC(=O)c3cc([N+](=O)[O-])cn3C)cn2C)cn1C | 91.9 | > 100 | > 100 | > 100 | > 100 | > 100 | > 100 | > 100 | > 100 | > 100 | – | – | –
18 | CCOC(=O)c1cc(C(=O)c2ccccc2)n2nc(-c3ccc(Cl)cc3)ccc12 | 51.9 | 37.2 | 35.4 | > 100 | 53.5 | 34.8 | 30.8 | 39.3 | 42.6 | 28.2 | – | – | –
19 | O=c1[nH]nc(-c2ccccc2)n1/N=C/c1ccncc1 | > 100 | > 100 | > 100 | > 100 | > 100 | > 100 | > 100 | > 100 | > 100 | > 100 | – | – | –
20 | CC(=O)N1CCc2c([nH]c3ccc(Br)cc23)C1c1ccccc1 (centres undefined) | > 10 | > 10 | > 10 | > 10 | > 10 | > 10 | > 10 | > 10 | > 10 | > 10 | – | – | –
21 | Cn1c(=O)c2c(nc3n(Cc4ccccc4)c(=O)c(NCCBr)cn23)n(C)c1=O | > 100 | 49.2 | > 100 | > 100 | > 100 | 43.2 | > 100 | > 100 | 48.1 | 32.3 | – | – | –
22 | CC(C)CCC[C@@H](C)[C@H]1CCC2C3CC=C4C[C@@H](Oc5c6ccccc6nc6ccccc56)CCC4C3CCC21 (some centres undefined) | > 50 | > 50 | > 50 | > 50 | > 50 | > 50 | > 50 | > 50 | > 50 | > 50 | – | – | –
23 | CCCCCC(=O)N[C@@H](c1ccccc1)C(O)C(=O)OC1C[C@@]2(O)C(OC(=O)c3ccccc3)C3[C@](C)(C(=O)[C@H](O)C(=C1C)C2(C)C)C(OC1OCC(O)C(O)C1O)C[C@H]1OC[C@@]31OC(C)=O (some centres undefined) | > 100 | > 100 | > 100 | 7.79 | > 38.3 | > 75.8 | > 100 | > 100 | > 100 | > 100 | – | – | –
24 | CCOC(=O)c1c(Br)c(-c2ccc(Br)cc2)c(Br)n1C | 35.2 | > 100 | 79.4 | 16.6 | 26.4 | 53.1 | > 100 | > 100 | 74.2 | 84.7 | 5.24 | 23.6 | 20.3
25 | COC(=O)C1=C(C)NC2(O)C=CC(=O)C3C(=O)N(c4ccccc4)C(=O)C132 (centres undefined) | > 100 | > 100 | > 100 | > 100 | > 100 | > 100 | > 100 | > 100 | > 100 | > 100 | – | – | –
26 | Cc1cc(CNC(=O)OCc2ccccc2)c(C)c2c1Oc1ccccc1O2 | > 100 | 72.3 | > 100 | > 100 | > 100 | 53.3 | 97.7 | > 100 | > 100 | > 100 | > 100 | – | –
27 | NNc1nc2ccccc2c(=O)n1NC(=O)C(=O)Nc1cccc(C(F)(F)F)c1 | > 100 | > 100 | > 100 | > 100 | > 100 | > 100 | > 100 | > 100 | > 100 | > 100 | – | – | –
28 | Cc1ccc(S(=O)(=O)/N=C(\NN)Nc2ccc(Cl)cc2)cc1 | > 100 | > 100 | > 100 | > 100 | > 100 | > 100 | > 100 | > 100 | > 100 | > 100 | – | – | –
